Test results: publication PMC9890698 (BMC Biology, 2023)
Several values for one entry are separate records, joined by “and”; a condition that tells them apart may be missing. Equal values may be shown once.

Experiments:
[1] = tested on: washed human platelets (P2Y1-R/Gαq signaling); assay: IP1 accumulation assay (HTRF) in washed human platelets; type: cell-based; conditions: for IP1 concentration (% of basal mean at 30 minutes): Fig. S4a, MRS2179 10 µM, individual replicates
Procedure: As performed in HEK293T cells, we thus quantified intracellular IP1 levels to monitor Gαq protein-dependent signaling pathways.
Human platelets were prepared from adult healthy volunteers free of antiplatelet or anti-inflammatory medication since at least ten days. […] After two steps of centrifugation and suspension in Tyrode’s buffer (140 mM NaCl, 5 mM KCl, 5 mM KH2PO4, 1 mM MgSO4, 10 mM HEPES, 5 mM glucose and 0.35% (w/v) BSA, pH 6,7), washed platelets were suspended in the same buffer adjusted to pH 7.4 and containing 1 mM CaCl2. The final platelet suspension was adjusted to 3.10^8 platelets/mL and rested for 45 min in the presence of 0.02 U/mL apyrase and 10 μM indomethacin at 37 °C prior experiments. PGI2 (0.5 μM) was added before centrifugation steps to avoid platelet activation.
Quantification of intracellular IP1 was performed using the HTRF (Homogeneous Time Resolved Fluorescence) IP1 competitive immunoassay (IP-One Tb kit. Cisbio. France) according to the manufacturer’s instructions. Briefly, 20,000 HEK293T/17 cells or 3.10^6 platelets were distributed in a 384-well white microplate (Greiner) and incubated with the indicated molecules for 30 min or 2 h at 37 °C in the presence of 50 mM of LiCl to prevent IP1 degradation. After addition of d2-labeled IP1 (acceptor) and anti-IP1-Cryptate (donor) for 1 h, the specific FRET signals were calculated by the fluorescence ratio of the acceptor and donor emission signal (665/620 nm) collected using a modified Infinite F500 (Tecan Group Ltd). Conversion of the HTRF ratio of each sample into IP1 concentrations was performed on the basis of a standard curve to determine the linear dynamic range of the assay.

Human P2Y1-R = target: T1, Human P2Y1-R (Homo sapiens, UniProt P47900); assay: Gαq protein activation BRET2 assay (Gαq-RLuc8/GFP2-Gγ2/Gβ1) in HEK293T cells expressing P2Y1-R; type: cell-based; set-up: ADP-modulated BRET / MRS2179-modulated BRET: unit not given here; conditions: for G protein signaling, Ligand-modulated BRET (% of maximum MRS2179 mean value): Figure 4a, individual replicates
T1 construct: expressed in transfected cells; host or cells: HEK293T/17
T1 sequence (P47900 whole entry): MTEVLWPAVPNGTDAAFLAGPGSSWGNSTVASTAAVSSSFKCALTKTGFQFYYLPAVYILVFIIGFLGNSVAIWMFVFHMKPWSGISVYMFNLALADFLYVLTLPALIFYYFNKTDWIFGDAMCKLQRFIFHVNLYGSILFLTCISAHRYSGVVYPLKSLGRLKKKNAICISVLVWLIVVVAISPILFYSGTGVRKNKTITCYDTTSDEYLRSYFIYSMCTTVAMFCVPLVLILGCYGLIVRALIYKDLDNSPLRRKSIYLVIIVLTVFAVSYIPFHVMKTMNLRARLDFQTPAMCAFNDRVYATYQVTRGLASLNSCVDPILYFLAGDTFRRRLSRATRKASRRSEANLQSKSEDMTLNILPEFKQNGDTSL
Text: As previously described, using a BRET^2 (bioluminescence resonance energy transfer)-based assay, we directly monitored the basal Gαq protein activation by measuring the interaction between Gαq and Gγ2 subunits of the Gαqβ1γ2 heterotrimer complex. Indeed, this assay is based on the non-radiative transfer between the Renilla reniformis luciferase (RLuc8) energy donor fused to the Gαq protein subunit and the fluorescent GFP2 energy acceptor fused to Gγ2 protein subunit (Fig. 1a). […] By contrast, ligand-independent constitutive receptor activation or agonist-induced receptor activation will promote Gαq/Gγ2 subunit dissociation, thereby leading to a decrease of the basal BRET signal (Fig. 1a). […] To preclude any P2Y1-R activation by a passive release of ADP by HEK293T cells, we performed similar experiments in the presence of high concentration of apyrase (0.2U/mL) to degrade any trace of ADP in the medium (Additional File 2: Fig. S2a). Under these conditions, P2Y1-R expression still induces a marked and significant decrease of the basal BRET signal compared to control cells (pcDNA3.1), thereby supporting a P2Y1-R-dependent constitutive activation of Gαq protein. […] Of note, because P2Y1-R and AT1-R were respectively Myc- and HA-tagged and were thus detected using different primary antibodies, their expression at the cell surface cannot be compared between each other’s.
Human P2Y1-R (NCBI Reference Sequence: NM_002563.2) and P2Y12-R (NCBI Reference Sequence: NM_022788.3) were fused to double Myc epitope and rat AT1-R (NCBI Reference Sequence: NM_030985.4) to HA tag in N-terminus extracellular region. Alternatively, receptors were also fused to Venus tag in C-terminus intracellular region. Plasmids encoding Gαq-RLuc8, GFP2-Gγ2 and untagged Gβ1 were previously described. ADP was purchased from Sigma-Aldrich/Merck (Darmstadt, Germany). […] The Gq inhibitor (FR900359) was kindly supplied by Evi Kostenis (University of Bonn. Germany).
G protein activation and β-arrestin 2 recruitment were performed as previously described. Briefly, vectors encoding receptors, Gαq-RLuc8, GFP2-Gγ2, Gβ1, or β-arrestin 2 were transiently cotransfected into HEK293T/17 cells as indicated in the figure legends. Forty-eight hours after transfection, cells were washed and resuspended in PBS containing 0.1% (w/v) glucose at room temperature and then distributed (80 μg proteins/well) in a 96-well microplate (PerkinElmer). For G protein activation experiments (BRET^2), cells were incubated in the absence (basal BRET signal) or in the presence of ligand for 1 minute. BRET signal between RLuc8 and GFP2 was measured after addition of the luciferase substrate coelenterazine 400a (5 μM). For β-arrestin 2 recruitment (BRET^1), cells were stimulated with ligands for 5 or 15 min. BRET signal was recorded after incubation with coelenterazine h (5 μM) for 8 min. For kinetics studies, BRET signal between RLuc and Venus was recorded at 20-s intervals at basal state for the 2 first minutes and then for 5 min after ligand injection. For saturation curves (BRET^1), the expression level of Venus- or RLuc-tagged protein was determined by direct measurement of total fluorescence and luminescence respectively. Total fluorescence was first measured with an excitation filter at 485 nm and an emission filter at 520 nm. Then, the same sample was incubated for 8 minutes with 5 μM coelenterazine h and the total luminescence was measured. BRET^2 and BRET^1 readings were collected using a modified Infinite F500 (Tecan Group Ltd). The BRET^2 signal was calculated by the ratio of emission of GFP2 (510–540 nm) to RLuc8 (370–450 nm) and the BRET^1 signal by the ratio of emission of Venus (520–570 nm) to RLuc (370–480 nm). […]

[2] = G protein signaling, Fig. 4a, 1 min

CNc1ncnc2c1ncn2[C@H]1C[C@H](OP(=O)(O)O)[C@@H](COP(=O)(O)O)O1 [MRS2179]
IP1 concentration (% of basal mean at 30 minutes) ([1]; 30 minutes): 61.0057 % of basal mean at 30 minutes and 99.6481 % of basal mean at 30 minutes and 82.2183 % of basal mean at 30 minutes and 56.7485 % of basal mean at 30 minutes
IP1 concentration (% of basal mean at 30 minutes) ([1]; 2 hours): 94.0172 % of basal mean at 30 minutes and 113.32 % of basal mean at 30 minutes and 105.9 % of basal mean at 30 minutes and 70.9752 % of basal mean at 30 minutes
IP1 concentration (% matched basal values) ([1]; human platelets, MRS2179 10 μM, 2 h, individual donors): 129.303 % matched basal values and 123.213 % matched basal values and 123.793 % matched basal values and 163.625 % matched basal values and 131.963 % matched basal values and 159.513 % matched basal values and 140.89 % matched basal values and 171.298 % matched basal values and 155.836 % matched basal values and 154.357 % matched basal values and 192.203 % matched basal values and 190.967 % matched basal values and 205.13 % matched basal values and 115.394 % matched basal values and 124.227 % matched basal values and 114.571 % matched basal values
Effect on IP1 levels ([1]; washed human platelets, ADP 100 μM, antagonists 10 μM, Gq inhibitor 100 nM, 2 h, apyrase 0.02 U/mL, result in words): decreased IP1 levels
Maximal efficacy (Emax ± s.e.m.), MRS2179-modulated BRET (Human P2Y1-R; Fig. 1f, 1 min stimulation, difference in BRET signal with and without ligand): 0.1224 ± 0.01335
EC50 (Human P2Y1-R; Fig. 1f, MRS2179 inverse agonism on Gαq protein activity, 1 min): 11.1 µM
pEC50 ± s.e.m. (Human P2Y1-R; Fig. 1f, inverse agonism on Gαq protein activity, 1 min): 4.955 ± 0.1405
G protein signaling, Ligand-modulated BRET (% of maximum MRS2179 mean value) (Human P2Y1-R; [Ligand] 1.00E-04 M): 119.465 % of maximum MRS2179 mean value and 98.3727 % of maximum MRS2179 mean value and 97.2091 % of maximum MRS2179 mean value and 96.9774 % of maximum MRS2179 mean value and 99.1946 % of maximum MRS2179 mean value and 88.7807 % of maximum MRS2179 mean value
G protein signaling, Ligand-modulated BRET (% of maximum MRS2179 mean value) (Human P2Y1-R; [Ligand] 1.00E-05 M): 56.3081 % of maximum MRS2179 mean value and 33.7445 % of maximum MRS2179 mean value and 25.9535 % of maximum MRS2179 mean value and 52.677 % of maximum MRS2179 mean value and 40.3542 % of maximum MRS2179 mean value and 35.9046 % of maximum MRS2179 mean value
G protein signaling, Ligand-modulated BRET (% of maximum MRS2179 mean value) (Human P2Y1-R; [Ligand] 1.00E-06 M): 9.486 % of maximum MRS2179 mean value and 10.5017 % of maximum MRS2179 mean value and 11.1842 % of maximum MRS2179 mean value and 16.1238 % of maximum MRS2179 mean value and -1.632 % of maximum MRS2179 mean value and 9.136 % of maximum MRS2179 mean value
G protein signaling, Ligand-modulated BRET (% of maximum MRS2179 mean value) (Human P2Y1-R; [Ligand] 1.00E-07 M): -1.306 % of maximum MRS2179 mean value and -6.5129 % of maximum MRS2179 mean value and -11.3924 % of maximum MRS2179 mean value and -9.0003 % of maximum MRS2179 mean value and -8.705 % of maximum MRS2179 mean value and -1.657 % of maximum MRS2179 mean value
G protein signaling, Ligand-modulated BRET (% of maximum MRS2179 mean value) (Human P2Y1-R; [Ligand] 1.00E-08 M): 0.5671 % of maximum MRS2179 mean value and -5.257 % of maximum MRS2179 mean value and -11.3188 % of maximum MRS2179 mean value and -7.6778 % of maximum MRS2179 mean value and -4.305 % of maximum MRS2179 mean value and -3.069 % of maximum MRS2179 mean value
G protein signaling, Ligand-modulated BRET (% of maximum MRS2179 mean value) (Human P2Y1-R; [Ligand] 1.00E-09 M): -1.107 % of maximum MRS2179 mean value and -5.538 % of maximum MRS2179 mean value and -15.6317 % of maximum MRS2179 mean value and -13.6938 % of maximum MRS2179 mean value and -9.3466 % of maximum MRS2179 mean value and -3.722 % of maximum MRS2179 mean value
G protein signaling, Ligand-modulated BRET (% of maximum MRS2179 mean value) (Human P2Y1-R; [Ligand] 1.00E-10 M): -2.846 % of maximum MRS2179 mean value and -13.4143 % of maximum MRS2179 mean value and -1.422 % of maximum MRS2179 mean value and -10.0078 % of maximum MRS2179 mean value and -9.182 % of maximum MRS2179 mean value and 0.7769 % of maximum MRS2179 mean value
EC50 (Human P2Y1-R; [2]): 15.2 µM
pEC50 ± s.e.m. (Human P2Y1-R; [2]): 4.817 ± 0.0671
Emax ± s.e.m. (Human P2Y1-R; G protein signaling, Fig. 4a, 1 min, normalized to the mean value of maximal MRS2179 response, in %): 115.7 ± 5.057
Behaviour on P2Y1-R-dependent constitutive Gαq protein activation (Human P2Y1-R; HEK293T cells, result in words): inverse agonist
MRS2179-modulated BRET (Human P2Y1-R; [MRS2179] 1.00E-04 M, 1 min): 0.06995 and 0.1332 and 0.1164 and 0.136 and 0.09077
